In experiment [1] the test system is IL-2 production. In words: Inhibition of IL-2 production in PHA-activated Jurkat cells (ELISA). Particulars: Homo sapiens, PHA 2.5 μg/mL, 20 hours, value bins. It counts as cell-based. For orientation: An ELISA detects its analyte on a solid surface through an enzyme-linked reagent.
The subject of experiment [2] is CRAC ion channel (ICRAC current). In words: Patch clamp inhibition of ICRAC current in Jurkat cells. The class given is cell-based, human. Particulars: 1 μM compound, n=3. On the procedure:
In general, a whole cell patch clamp method was used to examine the effects of a compound of the invention on a channel that mediates Icrac. In such experiments, a baseline measurement was established for a patched cell. Then a compound to be tested was perfused (or puffed) to cells in the external solution and the effect of the compound on Icrac was measured. A compound that modulates Icrac (e.g., inhibits) is a compound that is useful in the invention for modulating CRAC ion channel activity.
Jurkat T cells were grown on glass coverslips, transferred to the recording chamber and kept in a standard modified Ringers solution of the following composition: NaCl 145 mM, KCl 2.8 mM, CsCl 10 mM, CaCl2 10 mM, MgCl2 2 mM, glucose 10 mM, HEPES.NaOH 10 mM, pH 7.2.
The external solution contained 10 mM CaNaR, 11.5 mM glucose and the test compound at the concentrations described below.
The standard intracellular pipette solution contained: Cs-glutamate 145 mM, NaCl 8 mM, MgCl2 1 mM, ATP 0.5 mM, GTP 0.3 mM, pH 7.2 adjusted with CsOH. […]
Patch-clamp experiments were performed in the tight-seal whole-cell configuration at 21-25° C. […] Capacitive currents and series resistance were determined and corrected before each voltage ramp using the automatic capacitance compensation of the EPC-9. […]

The next experiment concerns IL-2. In words: Cytokine inhibition in PHA-stimulated primary human PBMCs: IL-2. The class given is cell-based. As to conditions: PBMC. On the procedure:
(§1) Cytokine production was measured using commercially available human ELISA assay kits (from Cell Science, Inc.) following the manufacturers instructions.

The next experiment relates to IL-4. In words: Cytokine inhibition in PHA-stimulated primary human PBMCs: IL-4. It counts as cell-based. As to conditions: PBMC. How it is done:
as §1

The subject of the next experiment is IL-5. In words: Cytokine inhibition in PHA-stimulated primary human PBMCs: IL-5. It counts as cell-based. Particulars: PBMC. On the procedure: as §1
A further experiment deals with IL-10. The experiment can be described thus: Cytokine inhibition in PHA-stimulated primary human PBMCs: IL-10. The class given is cell-based. Particulars: PBMC. On the procedure:
as §1

A further experiment has as its system IL-13. The experiment can be described thus: Cytokine inhibition in PHA-stimulated primary human PBMCs: IL-13. The class given is cell-based. Particulars: PBMC. How it is done:
as §1

For a further experiment, the system named is GM-CSF. The experiment can be described thus: Cytokine inhibition in PHA-stimulated primary human PBMCs: GM-CSF. It counts as cell-based. As to conditions: PBMC. How it is done: as §1
The next experiment deals with INF-γ. In words: Cytokine inhibition in PHA-stimulated primary human PBMCs: INF-γ. It counts as cell-based. As to conditions: PBMC. How it is done: as §1
The subject of another experiment is TNF-α. In words: Cytokine inhibition in PHA-stimulated primary human PBMCs: TNF-α. Particulars: PBMC. It counts as cell-based. How it is done:
as §1

A further experiment relates to RBL cells. In words: Inhibition of degranulation in RBL cells. The class given is cell-based. Particulars: Rattus norvegicus, anti-DNP IgE / anti-IgE, read-out: concentration at which 50% of degranulation is inhibited. On the procedure:
Procedure: • The day before the assay was performed, RBL cells, that had been grown to confluence in a 96 well plate, were incubated at 37° C. for at least 2 hours. The medium was replaced in each well with 100 μL of fresh medium containing of anti-DNP IgE.
On the following day, the cells were washed once with PRS (2.6 mM glucose and 0.1% BSA) and 160 μL of PRS was added to each well. The test compound was addded to a well in a 20 μL solution at 10× of the desired concentration and incubated for 20 to 40 minutes at 37° C. 20 μL of 10× mouse anti-IgE (10 μL/mL). Maximum degranulation occurred between 15 to 40 minutes after addition of anti-IgE.

Experiment [3] relates to CRAC ion channel (ICRAC current). The experiment can be described thus: Patch clamp inhibition of ICRAC current in primary T cells. It counts as cell-based. As to conditions: primary human T cells, varying concentrations. How it is done:
Membrane currents of individual cells were recorded using the whole-cell configuration of the patch clamp technique with an EPC10 (HEKA Electronik, Lambrecht, Germany). Electrodes (2-5 MD in resistance) were fashioned from borosilicate glass capillary tubes (Sutter Instruments, Novato, Ca). The recordings were done at room temperature.
ICRAC currents were monitored every 2 seconds using a 50 msec protocol, where the voltage was ramped from −100 mV to +100 mV. The membrane potential was held at 0 mV between the test ramps. In a typical experiment the peak inward currents would develop within 50-100 seconds. Once the ICRAC currents were stabilized, the cells were perfused with compounds in the extracellular solution. At the end of an experiment the remaining ICRAC currents were then challenged with a control compound (SKF96365, 10 μM) to ensure that the current could still be inhibited.
The ICRAC current level was determined by measuring the inward current amplitude at −80 mV of the voltage ramp in an off-line analysis using MATLAB. The ICRAC current inhibition for each concentration was calculated using peak amplitude in the beginning of the experiment from the same cell. The IC50 value and Hill coefficient for each compound was estimated by fitting all the individual data points to a single Hill equation. […]
In general terms: In patch-clamp work, channel activity is measured electrically.

Experiment [4] concerns IL-2 production. In words: IL-2 production upon PMA/ionomycin stimulation in whole blood of dosed cynomolgus monkeys. The class given is in vivo. Particulars: IV 5 mg/kg, 4 hours after dosing. On the procedure:
(§2) 3 male non-native cynomolgus monkeys were fasted overnight prior to and for four (4) hours following each dose. Each monkey was given a single intravenous dose of the appropriate test compound followed by a 1 mL rinse of saline to flush the catheter. The dose was infused over one hour using calibrated syringe pumps. Following a one week washout, the same three monkeys were given a single oral gavage dose of the appropriate test compound dose formulation followed by a 10 mL flush with tap water. Following a second one week washout, the same three monkeys received a second oral dose of the appropriate test compound dose formulation followed by a 10 mL flush with tap water. Following a third one week washout, the same three monkeys received a third oral dose of the appropriate test compound dose formulation followed by a 10 mL flush with tap water. Prior to and at 1, 2, and 4 hours following each dose (measured from the start of dosing for IV doses), blood samples ([…] for Group 1 and 2 mL/sample for Groups 2 and 3) were drawn into tubes containing sodium heparin and stored at room temperature, and the concentration of the test compounds in each sample was measured. CsA was included as a positive control.

The next experiment concerns TNF-α production. The experiment can be described thus: TNF-α production upon PMA/ionomycin stimulation in whole blood of dosed cynomolgus monkeys. The class given is in vivo. Particulars: IV 5 mg/kg, 4 hours after dosing. How it is done: as §2

Some results are limits rather than exact numbers.

As for `COc1ccc(OC)c(-c2ccc(NC(=O)c3ccncc3F)cc2)c1` [Compound 66, 3-fluoro-pyridine-4-carboxylic acid (2′,5′-dimethoxybiphenyl-4-yl)-amide], the IC50 is less than 0.1 µM in the experiment on IL-2 production [1]; 0.02 µM in the experiment with IL-2; 0.445 µM with IL-4; 0.021 µM in the experiment with IL-5; more than 1 µM in the experiment with IL-10; 0.075 µM in the experiment with IL-13. Moreover, the IC50 in the experiment with GM-CSF is 0.448 µM; in the experiment on INF-γ, 0.088 µM; with TNF-α it was 0.271 µM; in the experiment with RBL cells, 0.43 µM. Moreover, the “inhibition of Icrac in Jurkat cells” value in experiment [2] is on record as more than 90%.

Regarding `COc1ccc(OC)c(-c2ccc(NC(=O)c3cccc(F)c3F)cc2)c1` [Compound 31, N-(2′,5′-Dimethoxy-biphenyl-4-yl)-2,3-difluoro-benzamide], the “inhibition of Icrac in Jurkat cells” value in experiment [2] is more than 43%. The “inhibition of ICRAC current in primary T cells compared with RBL cells (FIG. 1)” value in experiment [3] is “inhibits ICRAC current equally well in primary T cells as in RBL cells”. Also, the IC50 was 0.006 µM with IL-2; 0.071 µM in the experiment on IL-4; 0.011 µM with IL-5; more than 1 µM with IL-10; 0.051 µM in the experiment on IL-13; 0.097 µM in the experiment with GM-CSF. For the same compound, the IC50 was determined as 0.042 µM in the experiment on INF-γ, 0.068 µM in the experiment with TNF-α and 0.38 µM in the experiment on RBL cells. For the same compound, the “IL-2 production after IV infusion (FIG. 3)” value in the experiment with IL-2 production [4] is listed as “significantly inhibit IL-2 production”. Also, in the experiment on TNF-α production, the “TNF-α production after IV infusion (FIG. 4)” value is reported as “significantly inhibit TNF-α production”.

For the origin of these results see patent US20050148633A1 (priority 2003, published 2005).
